What all share (assay type): cell-based
One data set relates to sNF96.2. Description: MPNST viability assay (6 days, MTT or AlamarBlue). Conditions: for EC50: cell viability, sNF96.2, 6 days of treatment. How it is done:
(§1) Mycoplasma-free MPNST cell lines (see Table 1) were seeded in 50 μl/well of complete medium (DMEM high glucose supplemented with 1× GlutaMAX™, 1× sodium pyruvate and 10% fetal bovine serum (FBS), Thermo Fisher) in 96-well plates at the optimal cell density to ensure log-phase growth throughout the duration of the experiment (see Table 1). The day after seeding, 50 μl of medium containing 9 serial dilutions (1:3) of 2×-concentrated iadademstat (LSD1 inhibitor; used as the dihydrochloride salt) were added to the cells to obtain 100 μl of cells treated with 1×-concentrated compound at each dilution. Etoposide (topoisomerase II/DNA synthesis inhibitor) was also included as a positive control of the assay. Additionally, from the MPNST cell line panel, two cell lines (sNF96.2 and sNF02.2) were selected to evaluate the effect of other LSD1 inhibitors, i.e. bomedemstat (bis-tosylate salt) and pulrodemstat (besylate salt). Each experimental condition was tested in technical triplicates, including medium-only wells and vehicle-treated controls for background correction and normalization, respectively. After treatment, cells were incubated at 37° C. in a humidified and controlled 5% CO2 atmosphere for 72 h. At this time-point, compound and medium refreshment was performed by adding 50 μl of medium supplemented with 1×-concentrated compound at each corresponding dilution. Cells were incubated for additional 72 h (for a total of 6 days) prior to evaluating cell viability using either the MTT assay (Sigma-Aldrich) or AlamarBlue™ Cell viability reagent (Life Technologies), following manufacturer's instructions. Background was calculated as the mean of the values of medium-only controls and subtracted from each data point. The average of background-corrected technical triplicates was calculated and normalized by the mean of vehicle-treated controls (corresponding to 100% of viability). Data were analyzed using GraphPad PRISM® version 9.0.1 (GraphPad Software, Inc., La Jolla, CA/USA) to calculate the best-fitting curves and the EC50 values (corresponding to the concentration of compound at which a half (50%) maximal effect is obtained; lower EC50 values thus indicate greater potency).
(§2) LSD1 inhibitors such as iadademstat have been reported to exert their therapeutic effect by inducing cancer cell differentiation and inhibiting cancer cell proliferation rather than by killing cancer cells (Sacilotto N et al., ACS Pharmacol Transl Sci, 2021, 4(6):1818-34, doi: 10.1021/acsptsci.1c00223). In line with this, a cancer cell viability reduction of more than 30% reflects a potent therapeutic effect of the corresponding LSD1 inhibitor. In the present experiment, the response obtained after LSD1 inhibitor treatment was therefore classified into the following three groups: (1) strong response (viability reduction >30%); (2) medium response (viability reduction >15% and <30%); (3) low response (viability reduction <15%). Table 3 summarizes the EC50 values obtained for etoposide (the positive control of the assay) and iadademstat together with the classification according to viability reduction after LSD1 inhibitor treatment.

The test system of a further data set is sNF02.2. Description: MPNST viability assay (6 days, MTT or AlamarBlue). The note with it: for EC50: cell viability, sNF02.2, 6 days of treatment. Here is the method: as §1, §2
In general terms: Resazurin is reduced to fluorescent resorufin, in cell work by metabolically active cells.

The next data set relates to S462. Briefly: MPNST viability assay (6 days, MTT or AlamarBlue). The note with it: for EC50: cell viability, S462, 6 days of treatment. How it is done:
as §1, §2

For a further data set, the system named is MPNST-SP-10. Description: MPNST viability assay (6 days, MTT or AlamarBlue). Conditions: for EC50: cell viability, MPNST-SP-10, 6 days of treatment. Here is the method:
as §1, §2

A further data set has as its system MPNST-NF1-18b. Briefly: MPNST viability assay (6 days, MTT or AlamarBlue). Conditions: for EC50: cell viability, 6 days of treatment. Here is the method:
as §1, §2

In the next data set the test system is MPNST-NF1-09. Description: MPNST viability assay (6 days, MTT or AlamarBlue). How it is done:
as §1, §2

The next data set has as its system MPNST-NF1-08. Briefly: MPNST viability assay (6 days, MTT or AlamarBlue). How it is done:
as §1, §2

The subject of a further data set is HS-PSS. Description: MPNST viability assay (6 days, MTT or AlamarBlue). The note with it: for EC50: cell viability, 6 days of treatment. Here is the method:
as §1, §2

A further data set has as its system ST88-14. Briefly: MPNST viability assay (6 days, MTT or AlamarBlue). The note with it: for EC50: cell viability, ST88-14, 6 days of treatment. Here is the method:
as §1, §2

The test system of the next data set is MPNST-SP-01. Briefly: MPNST viability assay (6 days, MTT or AlamarBlue). How it is done:
as §1, §2

The test system of another data set is NMS-2. Description: MPNST viability assay (6 days, MTT or AlamarBlue). How it is done: as §1, §2
The subject of the next data set is 90-8TL. Briefly: MPNST viability assay (6 days, MTT or AlamarBlue). Conditions: for EC50: cell viability, 6 days of treatment. How it is done:
as §1, §2

Data set [1] deals with panel of 12 MPNST cell lines. Briefly: MPNST viability assay, summary over the cell line panel. How it is done:
as §1
A panel of 12 MPNST cell lines was used to evaluate the effects of the LSD1 inhibitor iadademstat on MPNST cell viability after 6 days of treatment, and etoposide was used as a positive control of the assay. In order for the in vitro experiments to reliably mirror the situation in the clinical setting, where MPNST patients feature a great genomic heterogeneity, a panel of different types of MPNST cell lines was used. The panel comprises both MPNST immortalized lines and MPNST cell lines derived from patients. […]

[2] abbreviates: viability reduction class, 6 days.

Consider `CN1CCN(C(=O)[C@H](CCCN[C@@H]2C[C@H]2c2ccc(F)cc2)NC(=O)c2ccc(-n3ccnn3)cc2)CC1` [Bomedemstat, N-[(2S)-5-{[(1R,2S)-2-(4-fluorophenyl)cyclopropyl]amino}-1-(4-methylpiperazin-1-yl)-1-oxopentan-2-yl]-4-(1H-1,2,3-triazol-1-yl)benzamide], for which the EC50 in the data set on sNF96.2 (144 h) turned out to be 1.28 nM; with sNF02.2 (144 h), 0.094 nM.
In the same order, the values of `COc1ccc(-c2c(-c3ccc(C#N)c(F)c3)nc(N3CCC(N)CC3)n(C)c2=O)cc1F` [Pulrodemstat, 4-[2-(4-aminopiperidin-1-yl)-5-(3-fluoro-4-methoxyphenyl)-1-methyl-6-oxo-1,6-dihydropyrimidin-4-yl]-2-fluorobenzonitrile] are 0.261 nM and 0.166 nM.
Take `COc1cc([C@@H]2c3cc4c(cc3[C@@H](O[C@@H]3O[C@@H]5CO[C@@H](C)O[C@H]5[C@H](O)[C@H]3O)[C@H]3COC(=O)[C@H]23)OCO4)cc(OC)c1O` [etoposide]: the EC50 with sNF96.2 was determined as 108 nM; in the data set with S462, 376 nM; in the data set with MPNST-SP-10 it was 269 nM; in the data set with MPNST-NF1-18b it was 394 nM; in the data set with MPNST-NF1-09 (cell viability, MPNST-NF1-09, 6 days of treatment), 737 nM; with MPNST-NF1-08 (cell viability, MPNST-NF1-08, 6 days of treatment), 740 nM. Besides, the EC50 with HS-PSS was determined as 205 nM; in the data set with ST88-14, 788 nM; in the data set with MPNST-SP-01 (cell viability, MPNST-SP-01, 6 days of treatment) it was 1030 nM; in the data set on NMS-2 (cell viability, NMS-2, 6 days of treatment), 154 nM; with sNF02.2 it was 144 nM; in the data set on 90-8TL, 164 nM.
For `N[C@H]1CC[C@H](N[C@@H]2C[C@H]2c2ccccc2)CC1` [iadademstat, (trans)-N1-((1R,2S)-2-phenylcyclopropyl)cyclohexane-1,4-diamine], in data set [1] (3 out of 12 cell lines, 6-day treatment), the “cell lines showing a strong viability reduction” value was found to be 25%. Besides, in data set [1] (5 out of 12 cell lines, 6-day treatment), the “cell lines showing a medium viability reduction” value is given as 41.67%. Moreover, the “EC50 values (in words)” value in [1] (medium- and strong-responding cell lines) is listed as “subnanomolar”. In addition, in data set [1] (of 12 cell lines, 6-day treatment), the “medium- and strong-responding cell lines, total” value was 66.67%. For the same molecule, the EC50 was found to be 0.042 nM in the data set on sNF96.2 (144 h); 0.087 nM in the data set with S462 (144 h); 0.033 nM in the data set with MPNST-SP-10 (144 h); 0.025 nM with MPNST-NF1-18b (144 h); 0.046 nM with HS-PSS (144 h); 0.039 nM in the data set on ST88-14 (144 h). Moreover, the EC50 is 0.017 nM in the data set with sNF02.2 (144 h) and 0.026 nM in the data set on 90-8TL (144 h). The “potency among the LSD1 inhibitors tested (in words)” value with sNF96.2 (sNF96.2, compared with bomedemstat and pulrodemstat) is “highest potency”; in the data set on sNF02.2 (sNF02.2, compared with bomedemstat and pulrodemstat), “highest potency”. Moreover, the “Response to iadademstat (viability assay)” value with sNF96.2 (viability reduction class, sNF96.2, 6 days) was “Strong response (strong response (viability reduction >30%))”; in the data set with S462 (viability reduction class, S462, 6 days), “Strong response (strong response (viability reduction >30%))”; with MPNST-SP-10 (viability reduction class, MPNST-SP-10, 6 days), “Medium response (medium response (viability reduction >15% and <30%))”; with MPNST-NF1-18b (setting [2]), “Strong response (strong response (viability reduction >30%))”; in the data set with MPNST-NF1-09 (viability reduction class, MPNST-NF1-09, 6 days) it was “Low response (low response (viability reduction <15%))”; with MPNST-NF1-08 (viability reduction class, MPNST-NF1-08, 6 days), “Low response (low response (viability reduction <15%))”. The “Response to iadademstat (viability assay)” value was “Medium response (medium response (viability reduction >15% and <30%))” with HS-PSS (setting [2]); “Medium response (medium response (viability reduction >15% and <30%))” in the data set on ST88-14 (viability reduction class, ST88-14, 6 days); “Low response (low response (viability reduction <15%))” in the data set with MPNST-SP-01 (viability reduction class, MPNST-SP-01, 6 days); “Low response (low response (viability reduction <15%))” in the data set on NMS-2 (viability reduction class, NMS-2, 6 days); “Medium response (medium response (viability reduction >15% and <30%))” in the data set on sNF02.2 (viability reduction class, sNF02.2, 6 days); “Medium response (medium response (viability reduction >15% and <30%))” in the data set with 90-8TL (setting [2]).

A word on the EC50: it is the concentration that produces a half-maximal response. Lower therefore signals higher potency in that assay.

These data come from patent publication US20250275969A1, “METHODS OF TREATING MALIGNANT PERIPHERAL NERVE SHEATH TUMOR (MPNST) USING LSD1 INHIBITORS” (ORYZON GENOMICS, S.A., priority 2022, published 2025).
